The values below are quoted from earlier work in patent US20130039957A1, “CONTROLLED RELEASE PHARMACEUTICAL COMPOSITIONS OF BRIVARACETAM” (LUPIN LIMITED, priority 2010, published 2013).

≈ marks a conversion by molar mass, not a printed value.

For series [1] the following is noted: healthy subjects.
Series [2] relates to neuronal voltage-dependent sodium channels. The note with it: preclinical studies.
For series [3], the target named is synaptic vesicle protein 2A (SV2A) (Homo sapiens, UniProt Q7L0J3). The note with it: preclinical studies.
Chain of synaptic vesicle protein 2A (SV2A) (Q7L0J3 whole entry, species assumed): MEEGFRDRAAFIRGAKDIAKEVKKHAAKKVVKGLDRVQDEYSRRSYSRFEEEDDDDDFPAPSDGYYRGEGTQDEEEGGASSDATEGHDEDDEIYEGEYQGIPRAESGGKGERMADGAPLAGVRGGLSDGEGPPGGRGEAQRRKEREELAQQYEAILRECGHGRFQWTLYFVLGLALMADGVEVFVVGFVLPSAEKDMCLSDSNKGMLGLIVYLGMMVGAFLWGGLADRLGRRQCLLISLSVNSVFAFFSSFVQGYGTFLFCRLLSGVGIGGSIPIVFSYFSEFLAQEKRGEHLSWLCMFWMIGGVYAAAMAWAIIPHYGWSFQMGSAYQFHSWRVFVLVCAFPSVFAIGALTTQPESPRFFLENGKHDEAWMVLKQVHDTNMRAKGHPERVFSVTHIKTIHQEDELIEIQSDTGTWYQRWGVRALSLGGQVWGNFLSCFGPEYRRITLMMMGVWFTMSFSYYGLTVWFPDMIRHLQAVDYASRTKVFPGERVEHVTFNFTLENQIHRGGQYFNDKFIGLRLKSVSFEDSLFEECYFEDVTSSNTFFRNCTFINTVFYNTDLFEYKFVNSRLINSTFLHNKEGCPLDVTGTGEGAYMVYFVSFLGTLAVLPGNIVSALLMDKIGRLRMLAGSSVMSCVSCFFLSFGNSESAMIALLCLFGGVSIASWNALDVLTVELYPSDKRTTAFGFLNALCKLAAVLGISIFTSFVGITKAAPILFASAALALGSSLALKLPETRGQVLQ

With `CCC[C@@H]1CC(=O)N([C@@H](CC)C(N)=O)C1` [Brivaracetam], the water solubility is 700 mg/mL (≈ 3300 mM). Besides, the half life in series [1] is 7.6 ± 1.7 h. For the same compound, the “inhibitory activity at neuronal voltage-dependent sodium channels” value in series [2] is “has inhibitory activity”. Also, the “affinity for synaptic vesicle protein 2A (SV2A)” value in series [3] is recorded as “showed affinity”.
